Reference: US20050003383A1, “Linoleate isomerase” (Arkion Life Sciences LLC d/b/a Bio-Technical Resources …, priority 1999, published 2005)

System: linoleate isomerase from Clostridium sporogenes
Assay: C. sporogenes linoleate isomerase kinetic assay, absorbence at 234 nm, partially purified enzyme
Type: biochemical
Conditions: for Activity / Activity (%): cofactor 50 μM, DTT 1 mM; for Activity (%): no cofactor = 100; for effect on isomerase activity: fatty acids and derivatives fixed at 35 μM; for Vmax / Km: compound as substrate; for Km: read-out: Km; for substrate has an inhibitory effect at concentrations above: substrate concentration dependency of isomerization
Protocol: In this experiment, all kinetic experiments were performed in a quartz cuvette (1-cm light-path with a magnetic stirrer) at room temperature using a HP 8452A diode array spectrophotometer. The cuvette was filled with 1 ml of incubation buffer containing 50 μg protein, 0.1 M potassium phosphate, pH7.5, 10 mM NaCl and 10% 1,2-propane diol. The isomerization was initiated by adding a small aliquot (1-2 μl) of freshly diluted substrate-stock (˜[…] linoleic acid) in 1,2-propane diol at 50 seconds. The increase in absorbence at 234 nm was monitored and recorded. […] The amount of product formed was calculated based on a molar extinction coefficient of 24,000.

[1] = isomerization of (cis, cis, cis, cis)-6, 9, 12, 15 octadecatetraenoic acid 20 PPM
[2] = compound added at 35 μM, substrate LA 35 μM, pH 7.5, LA alone = 100%
[3] = compound as substrate at 10 PPM, activity with linoleic acid set as 100%
[4] = isomerization of linoleic acid 10 PPM

SMILES | RELATIVE ACTIVITY % [2] [%] | RELATIVE ACTIVITY % [3] [%] | other results
CC(C)(COP(=O)(O)OP(=O)(O)OC[C@H]1O[C@@H](n2cnc3c(N)ncnc32)[C@H](O)[C@@H]1OP(=O)(O)O)[C@@H](O)C(=O)NCCC(=O)NCCS [CoA] |  |  | Activity [1]: 6.5 nmol/min; Activity (%) [1]: 105%
CCCCC/C=C\C/C=C\CCCCCCCCO [linoleyl alcohol, (cis, cis)-9, 12-octadecadien-1-ol] | 81 | 0 | serves as substrate: do not serve as substrates; effect on isomerase activity: inhibitors
CCCCC/C=C/C/C=C/CCCCCCCC(=O)O [linolelaidic acid, (trans, trans)-9, 12-octadecadienoic acid] | 19 | 0 | 
CCCCCCCC/C=C\CCCCCCCCCCCC(=O)O [erucic acid, (cis)-13-docosaenoic acid] |  | 0 | 
CCCCCC/C=C\CCCCCCCC(=O)O [palmitoleic acid, (cis)-9 hexadecenoic acid] | 27 | 0 | Ki (inhibition of linoleic acid isomerization, calculated from secondary plots, read-out: inhibition constants (Ki)): 33.1 µM
CCCCCCCC[C@H]1O[C@H]1CCCCCCCC(=O)O (relative stereo) [epoxystearic acid, (cis)-9:10-epoxyoctadecanoic] |  | 0 | 
CCCCC/C=C\C/C=C\C/C=C\CCCCCCC(=O)O [(cis, cis, cis)-8, 11, 14 eicosatrienoic acid] |  | 0 | 
O[C@H](CS)[C@H](O)CS (racemic) [DTT, dithiothreitol] |  |  | Activity [1]: 5.9 nmol/min; Activity (%) [1]: 95%; Activity [4]: 12.8 ± 3.8 nmol/min; Activity (%) [4]: 121%
CCCCC/C=C\C/C=C\CCCCCCCC(=O)OC [methyl linoleate, (cis, cis)-linoleic acid methyl ester] | 69 | 0 | serves as substrate: do not serve as substrates; effect on isomerase activity: inhibitors
CCCCC/C=C\C/C=C\CCCCCCCCCC(=O)OC [(cis, cis)-11, 14 eicosadienoic acid methyl ester] |  | 0 | 
CC/C=C\C/C=C\C/C=C\C/C=C\CCCCC(=O)O [stearidonic acid, (cis, cis, cis, cis)-6, 9, 12, 15 octadecatetraenoic acid] |  | 60 | Vmax: 204 nmole/min/mg protein; Km: 18.9 µM; substrate has an inhibitory effect at concentrations above: > 120 µM
CCCCCCCCCCCCCCCC(=O)O [palmitic acid, hexadecanoic acid] | 93 |  | 
CCCCC/C=C\C/C=C\C/C=C\CCCCC(=O)O [γ-linolenic acid, (cis, cis, cis)-6,9, 12-octadecatrienoic acid] |  | 77 | Vmax: 236 nmole/min/mg protein; Km: 23.8 µM; substrate has an inhibitory effect at concentrations above: > 15 µM
CCCCCCCCCCCCCCCCCC(=O)O [stearic acid, octadecanoic acid] | 107 |  | 
CCCCC/C=C\C/C=C\CCCCCCCCCC(=O)O [(cis, cis)-11, 14 eicosadienoic acid] | 0 | 20 | 
CCCCC/C=C\C/C=C\CCCCCCCCCCCC(=O)O [(cis, cis)-13, 16 docosadienoic acid] |  | 0 | 
